Legend:
[1] = Ice recrystallisation inhibition (IRI) modified splat assay; type: physicochemical; settings: at these concentrations (1-10 mg·mL^-1)
Procedure: Determination of RI activity was achieved using a modified “splat” assay. A 10 μL droplet of the analyte solution in PBS was expelled at a fixed height of 2 m onto a glass coverslip placed upon a pre-cooled (CO2(s)) aluminium plate. This was immediately transferred onto the pre-cooled microscope stage (−6° C.) and left to anneal for 30 minutes. Photographs of the wafer were taken at both 0 and 30 minutes through crossed polarizers. A large number of the ice crystals (30+) were then measured to find the largest grain size dimension along any axis. The average largest value from 3 individual photographs was calculated to give the mean largest grain size (MLGS). Reported errors are the coefficient of variation (standard deviation/mean) from a minimum of 3 individual data sets. Values are reported as the MLGS relative to that obtained for PBS alone.
A polynucleated wafer of ice crystals (each ice crystal is <30 μm) was made from phosphate buffered saline (PBS) solutions of the additive being investigated. Following annealing at −6° C. for 30 minutes, the wafers were imaged through crossed polarisers and the size of the crystals measured. In addition to PVA, two common biocompatible polymers were also assessed for IRI activity; dextran and poly(ethylene glycol) (PEG, FIG. 1C), as they are both commonly added to cryopreservative solutions.

erythrocytes = experiment: Cryoprotectant haemocompatibility / cytotoxicity (haemolysis of erythrocytes); type: cell-based, ovine
Procedure: A 40 μL aliquot of the thawed erythrocyte solution was added to 400 μL PBS and centrifuged (1000×g, 5 min, 4° C.) to remove intact cells. 50 μL of the supernatant was added to 150 μL PBS in a 96-well plate and an absorbance measurement at 450 nm recorded to assess the extent of haemoglobin leakage. 100% haemolysis samples were prepared by osmotic shock through addition of 500 μL H2O to 500 μL erythrocytes suspension and the sample was vortexed vigorously. Control (0% haemolysis) samples were prepared by the addition of 500 μL PBS to 500 μL erythrocytes and left at room temperature (25° C.) for 60 minutes. All measurements were repeated a minimum of 5 times and the reported errors are the coefficient of variation (standard deviation/mean).
Erythrocytes were prepared as described above. A 500 μL aliquot of erythrocytes was added to 500 μL of the polymer or DMSO in PBS and mixed by inversion. The samples were incubated at 25° C. for 120 minutes before analysis. Haemolysis was measured in the same method as used for cryopreservation studies (above). All measurements were repeated in triplicate.
Fresh ovine (defibrinated) erythrocytes were prepared in an identical manner as aforementioned. Samples were prepared in triplicate. A 500 μL aliquot of erythrocytes was added to 500 μL 2× final concentration cryoprotectant in PBS and mixed by inversion. The samples were incubated at room temperature for 120 minutes before analysis. […] This is in contrast to some examples that defined toxicity only at levels exceeding 10% haemolysis. Concentrations higher than this were not deemed necessary for assessment.

Structure (SMILES)	IRI activity of common vitrification solvents [1]	concentration above which significant haemolysis was observed (erythrocytes; 120 minutes at 25° C.)	concentration above which significant haemolysis was observed (erythrocytes; 120 minutes at room temperature, significant haemolysis >5%)	haemolytic property of common cryoprotectant (erythrocytes; general statement)
C[S+](C)[O-] [DMSO, dimethylsulfoxide]	little or no IRI activity	Above 1.5 w/v %	Above 1.5 wt %	strongly haemolytic
OCC(O)CO [glycerol]	little or no IRI activity	–	–	–

— patent publication US20150017628A1, “CRYOPRESERVATION OF CELLS IN ABSENCE OF VITRIFICATION INDUCING AGENTS” (UNIVERSITY OF WARWICK, priority 2012, published 2015)
